In patent US9050346B2, “Bromodomain inhibitors” (AbbVie Inc., priority 2013, dated 2015):

What was measured:
BRD4 (BDI_K57-E168) = target: T1, BRD4 (BDI_K57-E168) (Homo sapiens, UniProt O60885); experiment: TR-FRET bromodomain binding assay, BRD4 first bromodomain; conditions: His-tagged BD1, 100 nM Alexa647 probe; Ki calculated from IC50; dilution protocol A-G
T1 construct: BD1: amino acids K57-E168; made in house
Procedure, shortened: (§1)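 His-tagged BRD4 BD1 (K57-E168) or BD2 (8 nM) with Eu-anti-His antibody and Alexa647-labeled BET-inhibitor probe (100 nM for BDI, 30 nM for BDII), pH 6.0 phosphate buffer, 2% DMSO, 1 h at room temperature. TR-FRET (Ex 340, Em 495/520); IC50 by 4-parameter fit, converted to Ki using probe Kd and concentration.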

BRD4 (BDII_E352-M457) = target: T2, BRD4 (BDII_E352-M457) (Homo sapiens, UniProt O60885); experiment: TR-FRET bromodomain binding assay, BRD4 second bromodomain
T2 construct: made in house
Procedure, shortened: as §1

[1] = tested on: breast cancer cell line MX-1; experiment: MX-1 cell line proliferation assay (3-day, Cell Titer Glo); format: cell-based; conditions: Homo sapiens, MX1, MX-1 cells, 72 h, top concentration 3 μM, read-out: Cellular proliferation: EC50
Procedure, shortened: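 MX-1 cells, 5000/well in RPMI 1640 with 10% FBS, adhered overnight, then treated 3 days with compound at final 3 to 0.0001 μM (3-fold steps). Cell Titer Glo luminescence normalized to DMSO-treated cells; EC50 from sigmoidal fit.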

Ki (BRD4 (BDI_K57-E168)) | Ki (BRD4 (BDII_E352-M457)) | EC50 [1] | Structure (SMILES)
0.122 µM | 0.198 µM | 0.239 µM | Cc1[nH]c(-c2cc(CO)ccc2Oc2ccc(F)cc2F)c2c1C(=O)NCC2 [Example 103, 1-[2-(2,4-difluorophenoxy)-5-(hydroxymethyl)phenyl]-3-methyl-2,5,6,7-tetrahydro-4H-pyrrolo[3,4-c]pyridin-4-one]
0.00331 µM | 0.0341 µM | 0.0605 µM | Cc1[nH]c(-c2cc(N)ccc2Oc2ccc(F)cc2F)c2cn[nH]c(=O)c12 [Example 78, 5-[5-amino-2-(2,4-difluorophenoxy)phenyl]-7-methyl-2,6-dihydro-1H-pyrrolo[3,4-d]pyridazin-1-one]
0.126 µM | 0.627 µM | 1.72 µM | Cc1cc(-c2ccc(-c3[nH]c(C)c4c(=O)[nH]ncc34)cc2)[nH]n1 [Example 83, 7-methyl-5-[4-(3-methyl-1H-pyrazol-5-yl)phenyl]-2,6-dihydro-1H-pyrrolo[3,4-d]pyridazin-1-one]
0.01 µM | 0.138 µM | 0.159 µM | Cc1noc(-c2cc3c(-c4ccccc4Oc4ccccc4)[nH]c(C)c3c(=O)[nH]2)n1 [Example 61, 3-methyl-6-(3-methyl-1,2,4-oxadiazol-5-yl)-1-(2-phenoxyphenyl)-2H-pyrrolo[3,4-c]pyridin-4(5H)-one]
0.0248 µM | 0.285 µM | 0.104 µM | CCOC(=O)c1cc2c(-c3ccccc3Oc3ccc(F)cc3F)[nH]c(C)c2c(=O)[nH]1 [Example 21, ethyl 1-[2-(2,4-difluorophenoxy)phenyl]-3-methyl-4-oxo-4,5-dihydro-2H-pyrrolo[3,4-c]pyridine-6-carboxylate]
0.0435 µM | 0.257 µM | 0.139 µM | Cc1[nH]c(-c2ccccc2Oc2ccccc2)c2cc(-c3nc(C4CC4)no3)[nH]c(=O)c12 [Example 63, 6-(3-cyclopropyl-1,2,4-oxadiazol-5-yl)-3-methyl-1-(2-phenoxyphenyl)-2H-pyrrolo[3,4-c]pyridin-4(5H)-one]
0.00613 µM | 0.19 µM | 0.117 µM | Cc1[nH]c(-c2ccccc2Oc2ccccc2)c2cc(C(=O)N[C@@H]3CCN(C)C3)[nH]c(=O)c12 [Example 51, (R)-3-methyl-N-(1-methylpyrrolidin-3-yl)-4-oxo-1-(2-phenoxyphenyl)-4,5-dihydro-2H-pyrrolo[3,4-c]pyridine-6-carboxamide]
0.0522 µM | 0.416 µM | > 3 µM | CCOC(=O)c1cc2c(-c3cc(F)ccc3OCC3CC3)[nH]c(C)c2c(=O)[nH]1 [Example 69, ethyl 1-[2-(cyclopropylmethoxy)-5-fluorophenyl]-3-methyl-4-oxo-4,5-dihydro-2H-pyrrolo[3,4-c]pyridine-6-carboxylate]
0.00842 µM | 0.0115 µM | 0.0458 µM | Cc1[nH]c(-c2cc(N)ccc2Oc2ccc(F)cc2F)c2c1C(=O)NC(C)C2 (stereo not drawn) [Example 101, 1-[5-amino-2-(2,4-difluorophenoxy)phenyl]-3,6-dimethyl-2,5,6,7-tetrahydro-4H-pyrrolo[3,4-c]pyridin-4-one]
0.0924 µM | 0.72 µM | 1.24 µM | Cc1[nH]c(-c2ccccc2Oc2ccccc2)c2nc[nH]c(=O)c12 [Example 85, 5-methyl-7-(2-phenoxyphenyl)-3,6-dihydro-4H-pyrrolo[3,4-d]pyrimidin-4-one]
0.0277 µM | 0.00229 µM | 0.177 µM | Cc1[nH]c(-c2ccccc2Oc2ccccc2)c2cc(C(=O)Nc3ccc(CN4CCN(C)CC4)cc3)[nH]c(=O)c12 [Example 17, 3-methyl-N-(4-((4-methylpiperazin-1-yl)methyl)phenyl)-4-oxo-1-(2-phenoxyphenyl)-4,5-dihydro-2H-pyrrolo[3,4-c]pyridine-6-carboxamide]
0.00123 µM | 0.00331 µM | 0.0329 µM | CCOC(=O)c1cc2c(-c3cc(NS(=O)(=O)CC)ccc3Oc3ccccc3)[nH]c(C)c2c(=O)[nH]1 [Example 6, ethyl 1-(5-(ethylsulfonamido)-2-phenoxyphenyl)-3-methyl-4-oxo-4,5-dihydro-2H-pyrrolo[3,4-c]pyridine-6-carboxylate]
0.0568 µM | 0.118 µM | 0.442 µM | Cc1[nH]c(-c2ccccc2Oc2ccccc2)c2cc(C(=O)Nc3nccs3)[nH]c(=O)c12 [Example 26, 3-methyl-4-oxo-1-(2-phenoxyphenyl)-N-(thiazol-2-yl)-4,5-dihydro-2H-pyrrolo[3,4-c]pyridine-6-carboxamide]
0.212 µM | 0.497 µM | 0.963 µM | Cc1nc2c(-c3ccccc3Oc3ccccc3)[nH]c(C)c2c(=O)[nH]1 [Example 89, 2,5-dimethyl-7-(2-phenoxyphenyl)-3,6-dihydro-4H-pyrrolo[3,4-d]pyrimidin-4-one]
0.077 µM | 0.16 µM | 0.355 µM | CNC(=O)c1cc2c(-c3cc(C(F)(F)F)ccc3Oc3ccc(F)cc3F)[nH]c(C)c2c(=O)[nH]1 [Example 34, 1-[2-(2,4-difluorophenoxy)-5-(trifluoromethyl)phenyl]-N,3-dimethyl-4-oxo-4,5-dihydro-2H-pyrrolo[3,4-c]pyridine-6-carboxamide]
0.00215 µM | 0.0159 µM | 0.0257 µM | CCS(=O)(=O)Nc1ccc(Oc2ccccc2)c(-c2[nH]c(C)c3c(=O)[nH]c(C(=O)OC)cc23)c1 [Example 7, methyl 1-(5-(ethylsulfonamido)-2-phenoxyphenyl)-3-methyl-4-oxo-4,5-dihydro-2H-pyrrolo[3,4-c]pyridine-6-carboxylate]
0.0343 µM | 0.461 µM | 0.407 µM | Cc1[nH]c(-c2cc(S(C)(=O)=O)ccc2OCC2CC2)c2c1C(=O)NCC2 [Example 96, 1-[2-(cyclopropylmethoxy)-5-(methylsulfonyl)phenyl]-3-methyl-2,5,6,7-tetrahydro-4H-pyrrolo[3,4-c]pyridin-4-one]
0.0667 µM | 0.424 µM | 0.233 µM | COCc1cc2c(-c3ccccc3Oc3ccccc3)[nH]c(C)c2c(=O)[nH]1 [Example 44, 6-(methoxymethyl)-3-methyl-1-(2-phenoxyphenyl)-2,5-dihydro-4H-pyrrolo[3,4-c]pyridin-4-one]
0.0827 µM | 0.356 µM | > 3 µM | Cc1[nH]c(-c2cc(F)ccc2OCC2CC2)c2cc(C(N)=O)[nH]c(=O)c12 [Example 70, 1-[2-(cyclopropylmethoxy)-5-fluorophenyl]-3-methyl-4-oxo-4,5-dihydro-2H-pyrrolo[3,4-c]pyridine-6-carboxamide]
0.00188 µM | 0.0186 µM | 0.078 µM | Cc1[nH]c(-c2cc(N)ccc2Oc2ccccc2)c2cn[nH]c(=O)c12 [Example 74, 5-(5-amino-2-phenoxyphenyl)-7-methyl-2,6-dihydro-1H-pyrrolo[3,4-d]pyridazin-1-one]
0.38 µM | 1.62 µM | 0.761 µM | Cc1[nH]c(-c2ccccc2Oc2ccccc2)c2nc(-c3ccco3)[nH]c(=O)c12 [Example 88, 2-(furan-2-yl)-5-methyl-7-(2-phenoxyphenyl)-3,6-dihydro-4H-pyrrolo[3,4-d]pyrimidin-4-one]
0.00146 µM | 0.00861 µM | 0.0574 µM | CCOC(=O)c1cc2c(-c3cc(NS(=O)(=O)CC)ccc3Oc3ccc(F)cc3F)[nH]c(C)c2c(=O)[nH]1 [Example 10, ethyl 1-(2-(2,4-difluorophenoxy)-5-(ethylsulfonamido)phenyl)-3-methyl-4-oxo-4,5-dihydro-2H-pyrrolo[3,4-c]pyridine-6-carboxylate]
0.00381 µM | 0.047 µM | 0.0989 µM | Cc1[nH]c(-c2ccccc2Oc2ccccc2)c2cc(C(=O)NCCN3CCOCC3)[nH]c(=O)c12 [Example 27, 3-methyl-N-(2-morpholinoethyl)-4-oxo-1-(2-phenoxyphenyl)-4,5-dihydro-2H-pyrrolo[3,4-c]pyridine-6-carboxamide]
0.00178 µM | 0.00591 µM | 0.0886 µM | CCS(=O)(=O)Nc1ccc(Oc2ccc(F)cc2F)c(-c2[nH]c(C)c3c(=O)[nH]ncc23)c1 [Example 79, N-[4-(2,4-difluorophenoxy)-3-(7-methyl-1-oxo-2,6-dihydro-1H-pyrrolo[3,4-d]pyridazin-5-yl)phenyl]ethanesulfonamide]
